According to patent US20260027083A1, “USE OF PPAR AGONIST FOR IMPROVEMENT OF ENERGY METABOLISM” (NOVMETAPHARMA CO., LTD., priority 2022, published 2026):

Experiments:
3T3-L1 adipocytes = test: 3T3-L1 adipocyte differentiation, Oil Red O staining; format: cell-based, mouse; settings: treated together with rosiglitazone, each 25 μM
Method: A mouse preadipocyte 3T3-L1 cell line was cultured in DMEM containing 10% […] (CS) and 1% P/S. For differentiation of 3T3-L1, 10% FBS and 1% P/S were used. The cells were cultured in a 37° C. incubator humidified with 5% CO2 atmosphere.
3T3-L1 cells were seeded in a 12-well plate at a density of 5×10^4 cells/well. […] On day 2 of MDI addition, the medium was replaced with 1 μg/ml insulin.
After 2 days, the medium was replaced with DMEM containing 10% FBS and 1% P/S, and treated with a drug. The medium was replaced with fresh DMEM containing 10% FBS and 1% P/S, and treated with the drug three times every 2 days. Finally, the medium was replaced with DMEM containing only the drug in a serum-free state (serum starvation). After 2 days, differentiation of 3T3-L1 was completed.
After the differentiation of 3T3-L1 in the 12-well plate was completed, the cells were fixed with 4% paraformaldehyde and stained with an Oil Red O solution, and then the stained samples were photographed under a microscope (Nikon Eclipse Ti-s). An Oil Red O dye of the samples was dissolved in isopropanol, detected by a spectrophotometer at 492 nm, and the lipid droplet size distribution was measured using ImageJ. OCT-embedded liver samples were stained according to the Roy Ellis protocol. […]

high-fat diet mice = test: Histology of liver tissues of high-fat diet mice (H&E, Sirius Red, Oil Red O, NAFLD activity score); format: in vivo, C57BL/6J mice; settings: 5 mg/kg/day oral, 13 weeks HFD
Method: After the differentiation of 3T3-L1 in the 12-well plate was completed, the cells were fixed with 4% paraformaldehyde and stained with an Oil Red O solution, and then the stained samples were photographed under a microscope (Nikon Eclipse Ti-s). An Oil Red O dye of the samples was dissolved in isopropanol, detected by a spectrophotometer at 492 nm, and the lipid droplet size distribution was measured using ImageJ. OCT-embedded liver samples were stained according to the Roy Ellis protocol.
The care and use of experimental animals were carried out with the approval of the Institutional Animal Care and Use Committee of Pohang University of Science and Technology. C57BL/6J mice were purchased from Japan SLC, Inc. 50 four-week-old male C57/BL/6J mice were acclimated for 2 weeks. The mice were randomly divided and orally administered with vehicle or 5 mg/kg/day of D6 or WY14643 for 13 weeks (oral gavage), and obesity was induced by a 60% high-fat diet (#D12492, Research diets, NJ, USA). Body weights and food intakes were measured weekly from 6 weeks of age, and after 16 weeks of age, adipose tissue and muscle volumes were measured using a Trimodality imaging system.
Mouse tissues were fixed with 10% formalin solution (Sigma-Aldrich, St. Louis, MO, USA), and paraffin-embedded tissues were segmented and stained with hematoxylin and eosin (H&E) staining and Sirius Red staining (IHC world, Woodstock, USA).
Fibrosis and vesicular fat in liver tissue were observed using Sirius Red and Oil Red O staining methods. The NAFLD activation score was evaluated by referring to Kleiner, D. E. et al. Hepatology 41, 1313-1321, doi: 10.1002/hep.20701 (2005), etc., according to the NASH Clinical Research Network Scoring System.
To evaluate the effects on fatty liver-related symptoms after administration of the compound represented by Chemical Formula […], Sirius Red, and Oil Red O staining were performed on liver tissues of mice fed with a high-fat diet for 13 weeks.

PPARα = molecular target: T1, PPARα (Homo sapiens, UniProt Q07869); test: Gal4 trans-activated luciferase reporter assay, PPARα-LBD, HEK293; format: cell-based; settings: HEK293, drug treatment 24 hours, FIG. 1
T1 construct: three types of pcDNA5-GAL4 and pGALRE-luc containing PPARα-LBD, PPARβ/δ-LBD, or PPARγ-LBD; GAL4 (fusion partner from vector pcDNA5-GAL4); expressed in transfected cells; host or cells: HEK293
T1 sequence (Q07869 239-466 limits assumed): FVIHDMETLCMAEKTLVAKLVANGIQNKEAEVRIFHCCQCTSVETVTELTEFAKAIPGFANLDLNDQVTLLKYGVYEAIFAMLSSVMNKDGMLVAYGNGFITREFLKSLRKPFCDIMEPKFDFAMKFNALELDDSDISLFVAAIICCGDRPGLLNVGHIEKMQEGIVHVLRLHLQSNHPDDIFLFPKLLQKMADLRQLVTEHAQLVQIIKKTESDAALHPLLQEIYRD
Method: A plasmid was transformed into E. coli (DE3, Rosetta) and transfected into HEK293 cells and used. Referring to known literatures such as Kanno, Y. & Inouye, Y. J Toxicol Sci 35, 515-525 (2010), Zhao, S. et al. J Nat Prod 79, 879-885 (2016), etc., luciferase assay was performed on three types of pcDNA5-GAL4 and pGALRE-luc containing PPARα-LBD, PPARβ/δ-LBD, or PPARγ-LBD. pProEX-PPAR and pET-28a were used for purification of His-tagged recombinant hPPAR-LBD protein.
A HEK293 cell line was cultured in Dulbecco's Modified Eagle Medium (DMEM) containing 10% Fetal Bovine Serum (FBS) and 1% penicillin-streptomycin (P/S). […]
Transfected HEK293 cells were treated with a drug and after 24 hours, the cells were collected, resuspended in a luciferase lysis buffer (Promega, Madison, Wisconsin, USA), and incubated on ice for 10 minutes. […] Next, Firefly Luciferase (Fluc) and Renilla Luciferase (Rluc) activities were measured using the Dual Luciferase Reporter Assay System (Promega, Madison, Wisconsin, USA). […]
To confirm whether a compound represented by Chemical Formula 1 was a PPAR agonist, Gal4 trans-activated luciferase assay was performed. Specifically, HEK293 cells were transfected with the Gal4-luciferase reporter systems of PPARα, PPARβ/δ, and PPARγ, respectively, harvested after drug treatment for 24 hours, and then analyzed by Dual-Luciferase assay. […]

## COc1ccc(-c2cc(=O)oc3c(C)c(OC(=O)[C@H](Cc4c[nH]c5ccccc45)NC(=O)OC(C)(C)C)ccc23)cc1 [Chemical Formula 1, [4-(4-methoxyphenyl)-8-methyl-2-oxochromen-7-yl] (2S)-3-(1H-indol-3-yl)-2-[(2-methylpropan-2-yl)oxycarbonylamino]propanoate]
3T3-L1 adipocytes; FIG. 4 right
  lipid droplet size distribution in adipocytes: effectively reduced
3T3-L1 adipocytes; FIGS. 3 and 4 left
  lipid accumulation in adipocytes increased by rosiglitazone (Oil Red O): reduced
high-fat diet mice; FIG. 18
  level of lipid droplet accumulation in the liver (Oil Red O): reduced
high-fat diet mice; compared with WY14643 5 mg/kg/day, FIG. 17
  NAFLD activity score (H&E images of liver tissue): better effect of improving the NAFLD disease index than the high-fat diet mice (HFD-WY) administered with WY14643
high-fat diet mice; vs HFD-V, FIG. 16
  histological findings of fatty liver-related diseases in liver tissue: reduced
PPARα
  relative luciferase activity (Fluc to Rluc) for PPARα: dose-dependently increased
